Laboratory results published in BindingDB's records for doi:10.1021/jm970414b (University of Michigan, 1997).

Target: Glutathionylspermidine synthetase/amidase (Escherichia coli) (UniProt P0AES0)
Experiment: Inhibition of Glutathionylspermidine synthetase from Escherichia coli, value taken from literature

Sequence of Glutathionylspermidine synthetase/amidase (Escherichia coli) (P0AES0 whole entry, looked up): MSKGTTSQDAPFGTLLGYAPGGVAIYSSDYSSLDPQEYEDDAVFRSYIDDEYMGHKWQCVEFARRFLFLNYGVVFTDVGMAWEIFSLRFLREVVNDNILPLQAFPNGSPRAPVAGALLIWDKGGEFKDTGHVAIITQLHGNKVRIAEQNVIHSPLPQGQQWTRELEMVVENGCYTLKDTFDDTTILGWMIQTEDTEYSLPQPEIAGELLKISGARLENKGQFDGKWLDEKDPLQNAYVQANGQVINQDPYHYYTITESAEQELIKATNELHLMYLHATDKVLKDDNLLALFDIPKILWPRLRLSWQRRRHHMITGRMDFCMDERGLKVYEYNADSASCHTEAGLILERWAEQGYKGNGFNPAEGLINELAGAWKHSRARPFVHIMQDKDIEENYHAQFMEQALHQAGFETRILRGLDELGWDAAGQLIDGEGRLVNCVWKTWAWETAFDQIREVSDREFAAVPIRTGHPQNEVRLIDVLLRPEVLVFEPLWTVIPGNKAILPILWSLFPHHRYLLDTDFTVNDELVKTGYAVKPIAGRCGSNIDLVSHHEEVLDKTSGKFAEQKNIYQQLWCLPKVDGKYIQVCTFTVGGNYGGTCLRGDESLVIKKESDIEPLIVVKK

Work on `C[C@H](NC(=O)CC[C@H](N)C(=O)O)C(=O)NCP(=O)(O)OCCCNCCCCN` [2-Amino-4-[1-({[3-(4-amino-butylamino)-propoxy]-hydroxy-phosphorylmethyl}-carbamoyl)-ethylcarbamoyl]-butyric acid] yielded a Ki of 14 µM.
